The values that follow come from patent US9789096B2, “Methods and compositions for selective and targeted cancer therapy” (Board of Regents of the University of Texas System, priority 2013, dated 2017).

A word on the AC50: it is the concentration giving half of the maximal activity seen. High values mean weaker potency, low ones greater potency.

What all share (type): cell-based, human
For assay [1], the system named is H2073. The assay is described as follows: Cell viability dose-response, H2073. As to conditions: for AC50: NCI-H2073, Table 8, 12-point dose-response starting at 50 micromolar. As for the experimental part: FIG. 6A. […] Cell viability is plotted vs. compound concentration. Compound was added to cells plated at 15% confluence in 96-well plates in RPMI-1640 media supplemented with 5% Fetal Bovine Serum and 2 mM L-Glutamine. After 4 days of incubation, ATP levels were measured using Cell Titer Glo (Promega). Data are presented as the average of 2 replicates ±SEM.
Selectivity may be measured by the half maximal inhibitory concentration (IC50), which, as used herein, is a measure of the effectiveness of a compound in killing cells. This quantitative measure indicates how much of a particular compound is needed to kill a particular cell population by half (e.g., as indicated by the amount of ATP). […] The IC50 can be determined by constructing a dose-response curve. The lower the IC50, the higher the potency, and the greater the difference between IC50 values for different cell lines (e.g., sensitive lines vs. insensitive lines, and sensitive lines vs. normal lines) the greater the selectivity. […]
With this information, we synthesized and tested a series of small molecules derived in conception from the oxalamide and chromone scaffold including N-acyl ureas, as shown in Tables 6-8. Each compound was tested in a 12-point dose-response study starting at 50 micromolar and decreasing in 3-fold increments to sub-nanomolar concentrations, in duplicate. Additionally, one or more additional cell line was tested in the same way.

Assay [2] deals with H2122. The assay is described as follows: Cell viability dose-response, H2122. As to conditions: for AC50: NCI-H2122, Table 8, 12-point dose-response starting at 50 micromolar. A digest of the protocol:
(§1)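 Cells plated at 15% confluence in RPMI-1640 with 5% FBS and 2 mM L-glutamine, treated with compound in a 12-point, 3-fold dilution series from 50 micromolar, in duplicate. ATP measured by Cell Titer Glo after 4 days; IC50 taken from the dose-response curve.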

Assay [3] has as its system H1819. The assay is described as follows: Cell viability dose-response, H1819. As to conditions: Homo sapiens; for AC50: NCI-H1819, Table 8, 12-point dose-response starting at 50 micromolar. A digest of the protocol: as §1
[4] abbreviates: Homo sapiens, NCI-H2073, 12-point dose-response starting at 50 micromolar, 3-fold increments, in duplicate, read-out: toxicity data, H2073.
Setting [5] is: Homo sapiens, NCI-H2122, 12-point dose-response starting at 50 micromolar, 3-fold increments, in duplicate, read-out: toxicity data, H2122.
The mark [6] stands for this setting: Homo sapiens, NCI-H2073, Tables 3 and 4, read-out: IC50 (uM) vs indicated non-small cell lung cancer cell line H2073.
Where [7] appears, read: Homo sapiens, NCI-H2122, Tables 3 and 4, read-out: IC50 (uM) vs indicated non-small cell lung cancer cell line H2122.
Setting [8] is: NCI-H1819, Tables 3 and 4, read-out: IC50 (uM) vs indicated non-small cell lung cancer cell line H1819.
Where [9] appears, read: Tables 3 and 4, read-out: IC50 (uM) vs indicated non-small cell lung cancer cell line H2073.

Molecules are shown by their SMILES. Where two headings read alike, the source gives them in different places.

Consider `O=C1/C(=C/c2ccc(C(F)(F)F)cc2)COc2cc(OCc3cnn(-c4ccccc4)c3)ccc21` [SW209198-1], for which the results for the half-maximal activity concentration (AC50) in assay [1] (Homo sapiens), in assay [2] (Homo sapiens) and in assay [3] were 49.5 µM, 1.44 µM and 49.5 µM, respectively.
For the compound `C#CCOc1ccc(C(=O)c2ccc(NC(=O)C(=O)NCCc3ccccc3)cc2)cc1` [SW211560-1], the IC50 in assay [1] (setting [4]) is 22.7 µM; in assay [2] (setting [5]), at least 49.5 µM; in assay [3] (NCI-H1819, 12-point dose-response starting at 50 micromolar, 3-fold increments, in duplicate, read-out: toxicity data, H1819), at least 49.5 µM.
In the case of `NC(=O)c1ccc(C(=O)Nc2nc3ccccc3s2)cc1` [SW209411-1], the IC50 in assay [1] (setting [6]) is 27.8 µM; in assay [2] (setting [7]) it was at least 49.5 µM; in assay [3] (setting [8]), 3.1 µM.
Turning to `COc1ccc(CCNC(=O)C(=O)Nc2ccc(COc3ccc(Br)cc3)cc2)cc1` [SW209050-1], the IC50 in assay [1] (setting [4]) came to 25.9 µM; in assay [2] (setting [5]) it was 0.031 µM.
For `O=C1/C(=C/c2c[nH]cn2)COc2cc(OCc3cnn(-c4ccccc4)c3)ccc21` [SW209385-1], the AC50 in assay [1] (Homo sapiens) is 12.2 µM; in assay [2] (Homo sapiens), at least 49.5 µM; in assay [3] it was 18 µM.
The corresponding values for `O=c1c(Cc2ccc(Cl)nc2)coc2cc(OCc3cnn(-c4ccccc4)c3)ccc12` [SW209382-1] are 0.244 µM, 0.325 µM and 49.5 µM.
On to `COC(=O)c1ccc(C(=O)Nc2nc3ccc(N)cc3s2)cc1` [SW001296-3], for which the IC50 came to 49.5 µM in assay [1] (setting [9]); 18.5 µM in assay [2] (Tables 3 and 4, read-out: IC50 (uM) vs indicated non-small cell lung cancer cell line H2122); 28.6 µM in assay [3] (setting [8]).
In the case of `COc1ccc(CCNC(=O)C(=O)Nc2ccc(Oc3ccc(Br)cc3)cc2)cc1` [SW209075-1], the IC50 in assay [1] (setting [4]) turned out to be 8.07 µM; in assay [2] (setting [5]) it was 0.029 µM.
In the case of `Nc1ccc2nc(NC(=O)c3ccc(C(=O)O)cc3)sc2c1` [SW209413-1], the IC50 in assay [1] (setting [6]) is 49.5 µM; in assay [2] (setting [7]) it was at least 49.5 µM; in assay [3] (setting [8]) it was at least 49.5 µM.
As for `O=C(Nc1nc2cnccc2s1)c1ccccc1` [SW209562-1], the figures for the IC50 in assay [1] (setting [6]), in assay [2] (setting [7]) and in assay [3] (setting [8]) were 49.5 µM, at least 49.5 µM and at least 49.5 µM, respectively.
In the case of `O=c1c(Cc2nccs2)coc2cc(OCc3cnn(-c4ccccc4)c3)ccc12` [SW209380-1], the results for the AC50 in assay [1] (Homo sapiens), in assay [2] (Homo sapiens) and in assay [3] were 17.7 µM, 0.352 µM and 21.2 µM, respectively.
Regarding `O=C(O)c1ccc(C(=O)Nc2nc3ccccc3s2)cc1` [SW209412-1], the IC50 in assay [1] (setting [6]) was 49.5 µM; in assay [2] (setting [7]), at least 49.5 µM; in assay [3] (setting [8]), at least 49.5 µM.
Turning to `C=CCc1coc2cc(OCc3cnn(-c4ccccc4)c3)ccc2c1=O` [SW209022-1], the AC50 is 49.5 µM in assay [1] (Homo sapiens), 0.323 µM in assay [2] (Homo sapiens) and 47.1 µM in assay [3].
For the compound `COc1ccc(CCNC(=O)C(=O)Nc2ccc(OCc3ccc(Br)cc3)cc2)cc1` [SW209048-1], the IC50 was at least 49.5 µM in assay [1] (setting [4]) and 0.157 µM in assay [2] (setting [5]).
As to `Cc1ccc(/C=C2\COc3cc(OCc4cnn(-c5ccccc5)c4)ccc3C2=O)cc1` [SW209199-1], the AC50 in assay [1] (Homo sapiens) turned out to be 36.1 µM; in assay [2] (Homo sapiens), 43.7 µM; in assay [3], 39.5 µM.
The corresponding values for `O=C1/C(=C/c2ccc(F)cc2)COc2cc(OCc3cnn(-c4ccccc4)c3)ccc21` [SW209194-1] are 49.5 µM, 0.876 µM and 49.5 µM.
Consider `O=c1c(Cc2ccsc2)coc2cc(OCc3cnn(-c4ccccc4)c3)ccc12` [SW209379-1], for which the values for the half-maximal activity concentration (AC50) in assay [1] (Homo sapiens), in assay [2] (Homo sapiens) and in assay [3] were 0.087 µM, 0.082 µM and 49.5 µM, respectively.
The corresponding values for `NCCCCCOc1cccc(CC2=CCc3cc(OCc4cnn(-c5ccccc5)c4)ccc3C2=O)c1` [SW209383-1] are 49.5 µM, 2.37 µM and 49.5 µM.
In the case of `Nc1cccc(C(=O)Nc2nc3ccccc3s2)c1` [SW209323-1], the IC50 in assay [1] (setting [6]) was 0.816 µM; in assay [2] (setting [7]), 0.099 µM; in assay [3] (setting [8]), 40.3 µM.
The corresponding values for `C#CCOC(=O)Nc1ccc(C(=O)Nc2nc3ccccc3s2)cc1` [SW209168-1] are 39.2 µM, 0.029 µM and 40.1 µM.
The corresponding values for `O=C(c1ccccc1)c1ccc(/C(=N/c2nc3ccc(OCc4ccc(Cl)cc4)cc3s2)OCc2ccc(Cl)cc2)cc1` [SW211559-1] are 0.165 µM, 0.086 µM and 0.9 µM.
`O=C1/C(=C/c2cccc(C(F)(F)F)c2)COc2cc(OCc3cnn(-c4ccccc4)c3)ccc21` [SW209197-1]: the half-maximal activity concentration (AC50) in assay [1] (Homo sapiens) worked out at 26 µM; in assay [2] (Homo sapiens), 0.042 µM; in assay [3], 21.8 µM.
As to `COC(=O)c1ccc(C(=O)Nc2nc3ccccc3s2)cc1` [SW209414-1], the IC50 was 49.5 µM in assay [1] (setting [6]), at least 49.5 µM in assay [2] (setting [7]) and at least 49.5 µM in assay [3] (setting [8]).
On to `O=c1c(Cc2ccccn2)coc2cc(OCc3cnn(-c4ccccc4)c3)ccc12` [SW209187-1], for which the half-maximal activity concentration (AC50) was 49.5 µM in assay [1] (Homo sapiens), 0.28 µM in assay [2] (Homo sapiens) and 49.5 µM in assay [3].
On to `O=c1c(Cc2cccc(O)c2)coc2cc(OCc3cnn(-c4ccccc4)c3)ccc12` [SW209381-1], for which the AC50 amounted to 49.5 µM in assay [1] (Homo sapiens), 7.03 µM in assay [2] (Homo sapiens) and 49.5 µM in assay [3].
Turning to `C#CCOc1ccc(C(=O)c2ccc(C(=O)Nc3nc4ccc(OC)cc4s3)cc2)cc1` [SW209049-1], the IC50 in assay [1] (setting [9]) came out at 81 µM; in assay [2] (setting [7]), 0.131 µM; in assay [3] (setting [8]), 21 µM.
Regarding `COc1ncccc1Cc1coc2cc(OCc3cnn(-c4ccccc4)c3)ccc2c1=O` [SW209377-1], the concentration at half-maximal activity (AC50) in assay [1] (Homo sapiens) was determined as 0.204 µM; in assay [2] (Homo sapiens), 0.232 µM; in assay [3], 49.5 µM.
The corresponding values for `OC(CCc1ccc(Br)cc1)Cn1ccnc1` (stereo not drawn) [SW 209089-1] are 49.5 µM, at least 49.5 µM and 49.5 µM.
As to `Nc1ccc(C(=O)Nc2nc3ccccc3s2)cc1` [SW209563-1], the IC50 turned out to be 0.184 µM in assay [1] (setting [6]), 0.027 µM in assay [2] (setting [7]) and 19.7 µM in assay [3] (setting [8]).
On to `O=c1c(Cc2cccs2)coc2cc(OCc3cnn(-c4ccccc4)c3)ccc12` [SW209378-1], for which the concentration at half-maximal activity (AC50) came to 0.068 µM in assay [1] (Homo sapiens), 0.081 µM in assay [2] (Homo sapiens) and 49.5 µM in assay [3].
The corresponding values for `O=C1/C(=C/c2ccccc2F)COc2cc(OCc3cnn(-c4ccccc4)c3)ccc21` [SW209196-1] are 49.5 µM, 0.827 µM and 41 µM.
`O=C1/C(=C/c2ncc[nH]2)COc2cc(OCc3cnn(-c4ccccc4)c3)ccc21` [SW209384-1]: the AC50 in assay [1] (Homo sapiens) was determined as 9.68 µM; in assay [2] (Homo sapiens), 14 µM; in assay [3] it was 15.5 µM.
Consider `O=C(Nc1nc2ccccc2[nH]1)c1ccc([N+](=O)[O-])cc1` [SW209206-1], for which the IC50 in assay [1] (setting [6]) was 49.5 µM; in assay [2] (setting [7]) it was at least 49.5 µM; in assay [3] (setting [8]) it was at least 49.5 µM.
Take `O=c1c(Cc2ccncc2)coc2cc(OCc3cnn(-c4ccccc4)c3)ccc12` [SW209193-1]: the concentration at half-maximal activity (AC50) was 49.5 µM in assay [1] (Homo sapiens), 0.549 µM in assay [2] (Homo sapiens) and 49.5 µM in assay [3].
`O=C(c1ccccc1)c1ccc(NC(=O)c2nc3ccccc3s2)cc1` [SW209091-1]: the IC50 in assay [1] (setting [6]) turned out to be 24 µM; in assay [2] (setting [7]), 0.01 µM; in assay [3] (setting [8]), 9.03 µM.
As for `O=C1c2ccc(OCc3cnn(-c4ccccc4)c3)cc2OCC1Cc1ccccc1` (stereo not drawn) [SW209202-1], the values for the half-maximal activity concentration (AC50) in assay [1] (Homo sapiens), in assay [2] (Homo sapiens) and in assay [3] were 49.5 µM, 0.307 µM and 49.5 µM, respectively.
As for `Nc1ccc(C(=O)Nc2nc3ccccc3[nH]2)cc1` [SW211566], the IC50 is 49.5 µM in assay [1] (setting [6]), at least 49.5 µM in assay [2] (setting [7]) and at least 49.5 µM in assay [3] (setting [8]).
In the case of `C#CCNC(=O)c1ccc(C(=O)Nc2nc3ccccc3s2)cc1` [SW209082-1], the IC50 is 45.5 µM in assay [1] (setting [6]), 0.1 µM in assay [2] (setting [7]) and 45.5 µM in assay [3] (setting [8]).
As for `O=c1c(Cc2cnccn2)coc2cc(OCc3cnn(-c4ccccc4)c3)ccc12` [SW209207-1], the concentration at half-maximal activity (AC50) was 49.5 µM in assay [1] (Homo sapiens), 26.6 µM in assay [2] (Homo sapiens) and 49.5 µM in assay [3].
In the case of `O=c1c(Cc2cccnc2)coc2cc(OCc3cnn(-c4ccccc4)c3)ccc12` [SW209203-1], the AC50 in assay [1] (Homo sapiens) came out at 44 µM; in assay [2] (Homo sapiens), 3.17 µM; in assay [3], 49.5 µM.
In the same order, the values of `O=C(CCc1ccc(Br)cc1)Cn1ccnc1` [SW209201-1] are 49.5 µM, at least 49.5 µM and 49.5 µM.
